Assay results published in patent US9394289B2, “Inhibitors of c-fms kinase” (Janssen Pharmaceutica NV, priority 2006, dated 2016).
pIC50: −log10 of the molar value. Counter-ions that a name gives are not always drawn. Like-named read-outs stand apart in the source and are kept apart here.

Experiments:
[1] = target: c-fms (Homo sapiens (Human), UniProt P07333); experiment: Autophosphorylation fluorescence polarization competition immunoassay for c-fms inhibition; assay type: biochemical; conditions: averages of three independent measurements; table head says 1 nM c-fms, method says 10 nM c-fms, 1 mM ATP; read-out: 1 nM c-fms; peptide Pi assay IC-50
Description: Fluorescence Polarization Competition Immunoassay
The assay buffer used was 100 mM 4-(2-hydroxyethyl)piperazine 1-ethanesulfonic acid (HEPES), pH 7.5, 1 mM 1,4-dithio-DL-threitol (DTT), 0.01% (v/v) Tween-20. Compounds were diluted in assay buffer containing 4% dimethylsulfoxide (DMSO) just prior to the assay. To each well, 5 μL of compound were added followed by the addition of 3 μL of a mix containing 33 nM c-fms (Johnson & Johnson PRD) and 16.7 mM MgCl2 (Sigma) in assay buffer. The kinase reaction was initiated by adding 2 μL of 5 mM ATP (Sigma) in assay buffer. […] Control reactions were ran in each plate: in positive and negative control wells, assay buffer (made 4% in DMSO) was substituted for the compound; in addition, positive control wells received 1.2 μL of 50 mM ethylenediaminetetraaceticacid (EDTA).
The plates were incubated at room temperature for 45 min. At the end of the incubation, the reaction was quenched with 1.2 μL of 50 mM EDTA (EDTA was not added to the positive control wells at this point; see above). Following a 5-min incubation, each well received 10 μL of a 1:1:3 mixture of anti-phosphotyrosine antibody, 10×, PTK green tracer, 10× (vortexed), FP dilution buffer, respectively (all from PanVera, cat. #P2837). The plate was covered, incubated for 30 min at room temperature and the fluorescence polarization was read on the Analyst. The instrument settings were: 485 nm excitation filter; 530 nm emission filter; Z height: middle of well; G factor: 0.93. […] The reported IC50 values are averages of three independent measurements.

[2] = system: mouse bone-marrow derived macrophages (BMDM); experiment: CSF-1-driven mouse bone-marrow derived macrophages proliferation assay (BrDU incorporation); assay type: cell-based; conditions: 30 hrs culture, read-out: mCSF driven proliferation BMDM (Mouse) IC-50
Description: CSF-1-Driven Mouse Bone-Marrow Derived Macrophages Assay
Macrophages are derived by culturing mouse bone marrow in alpha-MEM supplemented with 10% FCS and 50 ng/ml recombinant mouse CSF-1 in bacteriologic dishes. On the sixth day, macrophages are detached from dishes, washed, and resuspended to 0.05 million cells/ml in alpha-MEM containing 10% FCS. One hundred ul of cell suspension are distributed per well into 96 well culture plates. Wells are further supplemented with the addition of 50 ul media containing 15 ng/ml CSF-1, 3 uM Indomethacin, and 3× of a dilution series of test compounds. The cells are cultured for 30 hrs at 37 degrees and 5% CO2. During the final six hours, cultures are supplemented with an additional 30 ul of media containing a 1:500 dilution of bromodeoxyuridine (BrDU). At the end of the culture period, the plates are spun at 1000 RPM for 1 minute and 130 ul of media is removed with a pipet and replaced with 150 ul of fixative solution for 1 hour @ room temperature. The fixative is then dispelled from the plates and the plates allowed to air dry. Incorporation of BrDU into the fixed, dried cells is quantified using a specific ELISA.

Sequence of c-fms (P07333 20-972): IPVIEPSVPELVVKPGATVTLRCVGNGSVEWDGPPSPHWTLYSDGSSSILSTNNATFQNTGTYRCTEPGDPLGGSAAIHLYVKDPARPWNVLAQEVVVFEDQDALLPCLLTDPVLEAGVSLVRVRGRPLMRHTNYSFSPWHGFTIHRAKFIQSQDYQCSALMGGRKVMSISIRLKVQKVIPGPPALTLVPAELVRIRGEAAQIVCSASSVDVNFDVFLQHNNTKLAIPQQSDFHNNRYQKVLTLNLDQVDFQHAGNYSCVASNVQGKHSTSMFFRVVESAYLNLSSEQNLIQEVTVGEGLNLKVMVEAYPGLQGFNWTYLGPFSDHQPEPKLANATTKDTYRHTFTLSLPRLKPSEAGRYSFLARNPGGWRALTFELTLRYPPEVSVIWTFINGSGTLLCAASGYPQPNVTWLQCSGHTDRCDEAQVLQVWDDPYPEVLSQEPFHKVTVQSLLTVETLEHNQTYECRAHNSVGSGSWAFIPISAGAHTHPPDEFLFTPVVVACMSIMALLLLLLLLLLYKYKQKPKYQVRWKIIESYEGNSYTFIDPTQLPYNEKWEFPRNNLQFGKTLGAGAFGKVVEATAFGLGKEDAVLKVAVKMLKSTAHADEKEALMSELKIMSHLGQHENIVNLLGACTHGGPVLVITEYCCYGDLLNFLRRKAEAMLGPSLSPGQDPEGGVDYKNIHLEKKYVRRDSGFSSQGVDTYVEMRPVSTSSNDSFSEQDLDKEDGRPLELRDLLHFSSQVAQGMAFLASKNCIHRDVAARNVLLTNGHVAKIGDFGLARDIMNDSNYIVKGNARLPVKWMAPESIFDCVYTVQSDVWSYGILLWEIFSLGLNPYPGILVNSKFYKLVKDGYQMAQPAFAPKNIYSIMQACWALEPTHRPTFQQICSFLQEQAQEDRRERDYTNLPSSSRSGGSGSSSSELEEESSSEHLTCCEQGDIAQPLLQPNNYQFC

Row | Structure (SMILES) | pIC50 [1] | pIC50 [2] | pIC50 ([2]; Mus musculus, BMDM)
1 | C[C@@H]1CC(O)(c2ccc(NC(=O)c3nc(C#N)c[nH]3)c(C3=CCC(C)(C)CC3)c2)C[C@H](C)O1 (stereo partly drawn) [Example 31, 4-cyano-1H-imidazole-2-carboxylic acid [2-(4,4-dimethyl-cyclohex-1-enyl)-4-(trans-4-hydroxy-cis-2,6-dimethyl-tetrahydro-pyran-4-yl)-phenyl]-amide] | 8.85 | 8.52 | 
2 | CC1(C)CC=C(c2cc(C3(C#N)CCS(=O)(=O)CC3)ccc2NC(=O)c2nc(C#N)c[nH]2)CC1 [Example 87, 4-Cyano-1H-imidazole-2-carboxylic acid [4-(4-cyano-1,1-dioxo-hexahydro-1λ^6-thiopyran-4-yl)-2-(4,4-dimethyl-cyclohex-1-enyl)-phenyl]-amide] | 8.96 |  | 8.09
3 | CC1(C)CC=C(c2cc(C3(O)CC(C)(C)N(CC(F)(F)F)C(C)(C)C3)ccc2NC(=O)c2nc(C#N)c[nH]2)CC1 [Example 91, 4-Cyano-1H-imidazole-2-carboxylic acid {2-(4,4-dimethyl-cyclohex-1-enyl)-4-[4-hydroxy-2,2,6,6-tetramethyl-1-(2,2,2-trifluoro-ethyl)-piperidin-4-yl]-phenyl}-amide] | ~6.68 |  | 7.21
4 | CC1(C)CC=C(c2cc(C3(O)CCSCC3)ccc2NC(=O)c2nc(C#N)c[nH]2)CC1 [Example 11, 4-Cyano-1H-imidazole-2-carboxylic acid [2-(4,4-dimethyl-cyclohex-1-enyl)-4-(4-hydroxy-tetrahydro-thiopyran-4-yl)-phenyl]-amide] | 8.54 |  | 7.46
5 | CC1(C)CC=C(c2cc(C3(C(=O)O)CCOCC3)ccc2NC(=O)c2nc(C#N)c[nH]2)CC1 [Example 17, 4-[4-[(4-Cyano-1H-imidazole-2-carbonyl)-amino]-3-(4,4-dimethyl-cyclohex-1-enyl)-phenyl]-tetrahydro-pyran-4-carboxylic acid] | 9.25 |  | < 6.52
6 | C[C@@H]1CC(O)(c2ccc(NC(=O)c3nc(C#N)c[nH]3)c(C3=CCC(C)(C)CC3)c2)C[C@H](C)O1 (stereo partly drawn) [Example 30, 4-Cyano-1H-imidazole-2-carboxylic acid [2-(4,4-dimethyl-cyclohex-1-enyl)-4-(cis-4-hydroxy-cis-2,6-dimethyl-tetrahydro-pyran-4-yl)-phenyl]-amide] | 8.49 | 8.15 | 
7 | N#Cc1c[nH]c(C(=O)Nc2ccc(C3(C(N)=O)CCOCC3)cc2C2=CCCCC2)n1 [Example 19, 4-Cyano-1H-imidazole-2-carboxylic acid [4-(4-carbamoyl-tetrahydro-pyran-4-yl)-2-cyclohex-1-enyl-phenyl]-amide] | 8.74 |  | 7.72
8 | CC1(C)CC=C(c2cc(C3(N4CCNCC4)CCOCC3)ccc2NC(=O)c2ncc(C#N)[nH]2)CC1 [Example 9, 5-Cyano-1H-imidazole-2-carboxylic acid [2-(4,4-dimethyl-cyclohex-1-enyl)-4-(4-piperazin-1-yl-tetrahydro-pyran-4-yl)-phenyl]-amide] | 8.72 |  | 7.00
9 | N#Cc1c[nH]c(C(=O)Nc2ccc(C3(C(=O)O)CCOCC3)cc2C2=CCCCC2)n1 [Example 18, 4-{4-[(4-Cyano-1H-imidazole-2-carbonyl)-amino]-3-cyclohex-1-enyl-phenyl}-tetrahydro-pyran-4-carboxylic acid] | 8.44 |  | 6.52
10 | N#Cc1c[nH]c(C(=O)Nc2ccc(C3(CN4CCOCC4)CCOCC3)cc2C2=CCCCC2)n1 [Example 21, 4-Cyano-1H-imidazole-2-carboxylic acid [2-cyclohex-1-enyl-4-(4-morpholin-4-ylmethyl-tetrahydro-pyran-4-yl)-phenyl]-amide] | 8.80 |  | 8.10
11 | CC1(C)CC=C(c2cc(C3(O)CC4CCC(C3)O4)ccc2NC(=O)c2nc(C#N)c[nH]2)CC1 (stereo not drawn) [Example 92, 4-Cyano-1H-imidazole-2-carboxylic acid [2-(4,4-dimethyl-cyclohex-1-enyl)-4-(3-hydroxy-8-oxa-bicyclo[3.2.1]oct-3-yl)-phenyl]-amide] | 8.66 |  | 7.92
12 | N#Cc1c[nH]c(C(=O)Nc2ccc(C3(CO)CCOCC3)cc2C2=CCCCC2)n1 [Example 20, 4-Cyano-1H-imidazole-2-carboxylic acid [2-cyclohex-1-enyl-4-(4-hydroxymethyl-tetrahydro-pyran-4-yl)-phenyl]-amide] | 8.74 |  | 7.70
13 | CC1(C)CC=C(c2cc(C3(OCC(=O)O)CCOCC3)ccc2NC(=O)c2ncc(C#N)[nH]2)CC1 [Example 3, {4-[4-[(5-Cyano-1H-imidazole-2-carbonyl)-amino]-3-(4,4-dimethyl-cyclohex-1-enyl)-phenyl]-tetrahydro-pyran-4-yloxy}-acetic acid] | 8.77 |  | 
14 | CN(C)C1(c2ccc(NC(=O)c3ncc(C#N)[nH]3)c(C3=CCC(C)(C)CC3)c2)CCOCC1 [Example 7, 5-Cyano-1H-imidazole-2-carboxylic acid [4-(4-dimethylamino-tetrahydro-pyran-4-yl)-2-(4,4-dimethyl-cyclohex-1-enyl)-phenyl]-amide] | 9.17 |  | 7.96
15 | CC1(C)CC=C(c2cc(C3(O)CCN(CC(F)(F)F)CC3)ccc2NC(=O)c2nc(C#N)c[nH]2)CC1 [Example 90, 4-Cyano-1H-imidazole-2-carboxylic acid {2-(4,4-dimethyl-cyclohex-1-enyl)-4-[4-hydroxy-1-(2,2,2-trifluoro-ethyl)-piperidin-4-yl]-phenyl}-amide] | 8.19 |  | 7.40
16 | CC1(C)CC=C(c2cc(C3(N)CCOCC3)ccc2NC(=O)c2ncc(C#N)[nH]2)CC1 [Example 5, 5-Cyano-1H-imidazole-2-carboxylic acid [4-(4-amino-tetrahydro-pyran-4-yl)-2-(4,4-dimethyl-cyclohex-1-enyl)-phenyl]-amide] | 9.30 |  | 8.62
17 | CC1(C)CC=C(c2cc(C3(N4CCN(CC(=O)O)CC4)CCOCC3)ccc2NC(=O)c2ncc(C#N)[nH]2)CC1 [Example 10, (4-{4-[4-[(5-Cyano-1H-imidazole-2-carbonyl)-amino]-3-(4,4-dimethyl-cyclohex-1-enyl)-phenyl]-tetrahydro-pyran-4-yl}-piperazin-1-yl)-acetic acid trifluoroacetic acid salt] | 8.10 |  | < 6.52
18 | CN(C)C(=O)C1(c2ccc(NC(=O)c3nc(C#N)c[nH]3)c(C3=CCC(C)(C)CC3)c2)CCOCC1 [Example 29, 4-Cyano-1H-imidazole-2-carboxylic acid [4-(4-dimethylcarbamoyl-tetrahydro-pyran-4-yl)-2-(4,4-dimethyl-cyclohex-1-enyl)-phenyl]-amide] | 8.80 |  | 7.96
19 | CC1(C)CC=C(c2cc(C3(CO)CCOCC3)ccc2NC(=O)c2nc(C#N)c[nH]2)CC1 [Example 25, 4-Cyano-1H-imidazole-2-carboxylic acid [2-(4,4-dimethyl-cyclohex-1-enyl)-4-(4-hydroxymethyl-tetrahydro-pyran-4-yl)-phenyl]-amide] | 9.31 |  | 8.19
20 | CC1(C)CC=C(c2cc(C3(O)CC(C)(C)OC(C)(C)C3)ccc2NC(=O)c2nc(C#N)c[nH]2)CC1 [Example 88, 4-Cyano-1H-imidazole-2-carboxylic acid [2-(4,4-dimethyl-cyclohex-1-enyl)-4-(4-hydroxy-2,2,6,6-tetramethyl-tetrahydro-pyran-4-yl)-phenyl]-amide] | 8.62 |  | 8.19
21 | CC1(C)CC=C(c2cc(C3(c4nn[nH]n4)CCOCC3)ccc2NC(=O)c2nc(C#N)c[nH]2)CC1 [Example 22, 4-Cyano-1H-imidazole-2-carboxylic acid {2-(4,4-dimethyl-cyclohex-1-enyl)-4-[4-(2H-tetrazol-5-yl)-tetrahydro-pyran-4-yl]-phenyl}-amide] | 9.10 |  | < 6.52
22 | N#Cc1c[nH]c(C(=O)Nc2ccc(C3(O)CCS(=O)(=O)CC3)cc2C2=CCCCC2)n1 [Example 15, 4-Cyano-1H-imidazole-2-carboxylic acid [2-cyclohex-1-enyl-4-(4-hydroxy-1,1-dioxo-hexahydro-1λ^6-thiopyran-4-yl)-phenyl]-amide] |  |  | 7.85
